# Test results as given in ChEMBL document CHEMBL3885861, “Open TG-GATES”.
# Structures can show the parent of a compound that is named as a salt.
# Species: Rattus norvegicus
# Experiment: Open TG-GATES - Regimen: Single
# Type: toxicity, organism-based, Sprague-Dawley
# Parameters: regimen Single, gender Male, age 6 weeks
# Conditions: in vivo, ip, 800 mg/kg, route intraperitoneal injection, dose level High; for APTT / Bas / Eos / Fbg / Hb / Ht / Lym / MCH / MCHC / MCV / Mono / Neu / PT / Plat / RBC / Ret / WBC: tissue Blood; for KIDNEY_L / KIDNEY_R / KIDNEY_TOTAL: tissue Kidney; for LIVER: tissue Liver; for A/G / ALP / ALT / AST / BUN / CRE / Ca / Cl / DBIL / GLC / IP / K / LDH / Na / PL / RALB / TBIL / TC / TG / TP / gamma-GTP: tissue Plasma
structure (smiles),measurement,setting,value
CCOC(=O)/C=C\C(=O)OCC [DIETHYL MALEATE],TERMINAL_BW,3 h,200.3 g
same,APTT,3 h,17 s
same,Bas,3 h,0%
same,Eos,3 h,1.4%
same,Fbg,3 h,195.6 mg/dL
same,Hb,3 h,14.1 g/dL
same,Ht,3 h,42.3%
same,Lym,3 h,62.4%
same,MCH,3 h,21.3 pg
same,MCHC,3 h,33.4%
same,MCV,3 h,63.9 fL
same,Mono,3 h,7.8%
same,Neu,3 h,28.4%
same,PT,3 h,13.2 s
same,Plat,3 h,123.8 x10_4/uL
same,RBC,3 h,662.6 x10_4/ul
same,Ret,3 h,9.9%
same,WBC,3 h,59.8 x10_2/uL
same,KIDNEY_L,3 h,0.9 g
same,KIDNEY_R,3 h,0.9 g
same,KIDNEY_TOTAL,3 h,1.8 g
same,LIVER,3 h,7.9 g
same,A/G,3 h,1.7
same,ALP,3 h,764.4 IU/L
same,ALT,3 h,48.8 IU/L
same,AST,3 h,96.2 IU/L
same,BUN,3 h,19.2 mg/dL
same,CRE,3 h,0.5 mg/dL
same,Ca,3 h,10.7 mg/dL
same,Cl,3 h,105.2 meq/L
same,DBIL,3 h,0.01 mg/dL
same,GLC,3 h,218.6 mg/dL
same,IP,3 h,10.8 mg/dL
same,K,3 h,5.2 meq/L
same,LDH,3 h,209.4 IU/L
same,Na,3 h,136 meq/L
same,PL,3 h,101.8 mg/dL
same,RALB,3 h,3.5 g/dL
same,TBIL,3 h,0.5 mg/dL
same,TC,3 h,59.4 mg/dL
same,TG,3 h,20.2 mg/dL
same,TP,3 h,5.5 g/dL
same,gamma-GTP,3 h,1 IU/L
same,TERMINAL_BW,6 h,195.6 g
same,APTT,6 h,16.8 s
same,Bas,6 h,0%
same,Eos,6 h,0.8%
same,Fbg,6 h,206.2 mg/dL
same,Hb,6 h,14.2 g/dL
same,Ht,6 h,42.4%
same,Lym,6 h,71.8%
same,MCH,6 h,22.1 pg
same,MCHC,6 h,33.5%
same,MCV,6 h,65.9 fL
same,Mono,6 h,8.6%
same,Neu,6 h,18.8%
same,PT,6 h,12.2 s
same,Plat,6 h,126 x10_4/uL
same,RBC,6 h,644.2 x10_4/ul
same,Ret,6 h,10.4%
same,WBC,6 h,78.9 x10_2/uL
same,KIDNEY_L,6 h,0.9 g
same,KIDNEY_R,6 h,0.9 g
same,KIDNEY_TOTAL,6 h,1.8 g
same,LIVER,6 h,7.6 g
same,A/G,6 h,2
same,ALP,6 h,784.8 IU/L
same,ALT,6 h,53.2 IU/L
same,AST,6 h,101 IU/L
same,BUN,6 h,22 mg/dL
same,CRE,6 h,0.5 mg/dL
same,Ca,6 h,10.9 mg/dL
same,Cl,6 h,105.6 meq/L
same,DBIL,6 h,0.012 mg/dL
same,GLC,6 h,204 mg/dL
same,IP,6 h,10.2 mg/dL
same,K,6 h,5.4 meq/L
same,LDH,6 h,205 IU/L
same,Na,6 h,136.2 meq/L
same,PL,6 h,124.6 mg/dL
same,RALB,6 h,3.7 g/dL
same,TBIL,6 h,0.5 mg/dL
same,TC,6 h,77.6 mg/dL
same,TG,6 h,28.2 mg/dL
same,TP,6 h,5.6 g/dL
same,gamma-GTP,6 h,1 IU/L
same,TERMINAL_BW,9 h,191 g
same,APTT,9 h,16.8 s
same,Bas,9 h,0%
same,Eos,9 h,0.8%
same,Fbg,9 h,190.4 mg/dL
same,Hb,9 h,13.7 g/dL
same,Ht,9 h,40.9%
same,Lym,9 h,63.6%
same,MCH,9 h,21.5 pg
same,MCHC,9 h,33.5%
same,MCV,9 h,64 fL
same,Mono,9 h,8.6%
same,Neu,9 h,27.2%
same,PT,9 h,12.4 s
same,Plat,9 h,126 x10_4/uL
same,RBC,9 h,638 x10_4/ul
same,Ret,9 h,8.8%
same,WBC,9 h,90.6 x10_2/uL
same,KIDNEY_L,9 h,0.9 g
same,KIDNEY_R,9 h,0.9 g
same,KIDNEY_TOTAL,9 h,1.8 g
same,LIVER,9 h,7.1 g
same,A/G,9 h,2.3
same,ALP,9 h,702.8 IU/L
same,ALT,9 h,38.6 IU/L
same,AST,9 h,101.8 IU/L
same,BUN,9 h,19.2 mg/dL
same,CRE,9 h,0.4 mg/dL
same,Ca,9 h,10.4 mg/dL
same,Cl,9 h,106 meq/L
same,DBIL,9 h,0 mg/dL
same,GLC,9 h,195 mg/dL
same,IP,9 h,9.5 mg/dL
same,K,9 h,4.9 meq/L
same,LDH,9 h,134.8 IU/L
same,Na,9 h,137 meq/L
same,PL,9 h,115.6 mg/dL
same,RALB,9 h,3.6 g/dL
same,TBIL,9 h,0.5 mg/dL
same,TC,9 h,71.2 mg/dL
same,TG,9 h,15 mg/dL
same,TP,9 h,5.2 g/dL
same,gamma-GTP,9 h,2 IU/L
same,TERMINAL_BW,24 h,198.4 g
same,APTT,24 h,15.2 s
same,Bas,24 h,0%
same,Eos,24 h,0.8%
same,Fbg,24 h,183 mg/dL
same,Hb,24 h,13.2 g/dL
same,Ht,24 h,39.6%
same,Lym,24 h,79.2%
same,MCH,24 h,21.7 pg
same,MCHC,24 h,33.4%
same,MCV,24 h,65 fL
same,Mono,24 h,5.2%
same,Neu,24 h,15%
same,PT,24 h,11.7 s
same,Plat,24 h,122 x10_4/uL
same,RBC,24 h,609.6 x10_4/ul
same,Ret,24 h,8.5%
same,WBC,24 h,126.8 x10_2/uL
same,KIDNEY_L,24 h,0.9 g
same,KIDNEY_R,24 h,0.9 g
same,KIDNEY_TOTAL,24 h,1.8 g
same,LIVER,24 h,8.9 g
same,A/G,24 h,2.3
same,ALP,24 h,756.4 IU/L
same,ALT,24 h,34.8 IU/L
same,AST,24 h,67.6 IU/L
same,BUN,24 h,18 mg/dL
same,CRE,24 h,0.4 mg/dL
same,Ca,24 h,10.5 mg/dL
same,Cl,24 h,106.4 meq/L
same,DBIL,24 h,0.022 mg/dL
same,GLC,24 h,189.2 mg/dL
same,IP,24 h,7.2 mg/dL
same,K,24 h,5.2 meq/L
same,LDH,24 h,123 IU/L
same,Na,24 h,138.6 meq/L
same,PL,24 h,135.8 mg/dL
same,RALB,24 h,3.7 g/dL
same,TBIL,24 h,0.4 mg/dL
same,TC,24 h,69.4 mg/dL
same,TG,24 h,98 mg/dL
same,TP,24 h,5.3 g/dL
same,gamma-GTP,24 h,2 IU/L
